Key:
Assay type in all cases: cell-based
[1] = tested on: neuron inside a human midbrain-like organoid; assay: Whole cell patch clamp recording of spontaneous postsynaptic currents in hMLO neurons; details: for spontaneous excitatory postsynaptic currents (sEPSCs): neuron inside hMLO at day 80, CNQX and AP5 applied together (FIG. 4F, recording 2)
Protocol: Whole cell patch clamp recording techniques were used to measure the intrinsic properties of neurons within human midbrain-like organoids. Each human midbrain-like organoid was placed in a chamber and submerged beneath continuously perfused artificial CSF (aCSF) saturated with 95% O2 and 5% CO2 at 30 to 32° C. Patch pipettes (2 to 4 MΩ) were filled with an intracellular solution containing (in mM): Potassium methanesulfonate 135, KCl 10, HEPES 10, EGTA 1 Na2ATP 2; 290 mOsm; pH was adjusted to between 7.2 to 7.4 with KOH. Whole cell recordings were performed using IR-DIC visualization techniques with an Olympus BX51WI upright microscope, using a ×60 water immersion lens. Signals were recorded using an MultiClamp 700B amplifier, filtered at 3 kHz using a Bessel filter, and digitized at 10 kHz with a Digidata 1322A analog-to-digital (A/D) board (Molecular Devices, Sunnyvale, CA). To measure Na^+ currents and K^+ currents, voltage steps (500 msec duration) were applied from a holding potential of −70 mV to a range of test potentials between −50 and +90 mV (10 mV increments). For excitability test, a series of current pulses (500 msec) of increasing amplitude (5 pA steps) were injected to make the current-firing frequency relationship. Spontaneous excitatory postsynaptic currents (sEPSCs) were collected at a holding potential of −70 mV. Evoked excitatory postsynaptic currents (eEPSCs) was induced by tungsten wire electrodes placed about 300 μm away from the recording neuron within the hMLO.

[2] = tested on: human cerebral organoids (hCOs); assay: Neuromelanin-like granule formation in human cerebral organoids; details: 50 μM for 10 days; human cerebral organoids (FIG. 7G)
Protocol: Human midbrain-like organoids were fixed in 4% paraformaldehyde (PFA) overnight, washed in PBS, embedded in paraffin block, and subsequently sectioned at 4 μm thickness. Next, hMLOsections were deparaffinized, hydrated with distilled water, and stained by Fontana-Masson staining kit (Abcam) according to manufacturer's protocol ([…] et al., 2011). Briefly, the sections were placed in ammoniacal silver solution and incubated in a 58 to 60° C. water bath for 30 to 60 minutes until the tissue sections had become yellowish/brown in colour. The tissue sections were washed with distilled water and incubated in gold chloride solution (0.2%) for 30 seconds. Next, the sections were incubated in gold chloride solution (0.2%) for 30 seconds and subsequently incubated with sodium thiosulfate solution (5%) for 2 minutes. Finally, the sections were incubated in nuclear fast red solution for 5 minutes for staining and mounting. Images were taken on an LSM710 confocal microscope or an Observer Z. 1 inverted microscope (Zeiss).

[3] = tested on: human midbrain-like organoids (hMLOs); assay: Neuromelanin-like granule formation in human midbrain-like organoids (bright field, Fontana-Masson staining); details: for formation of neuromelanin-like granules: 50 μM treatment, bright field images and Fontana-Masson stained sections (FIG. 3G)
Protocol: For generation of human midbrain-like organoids, human embryonic stem cell lines were used at less than 40 passages. The human embryonic stem cells were dissociated from intact colonies to single cells with TrypLE Express (Life Technologies), and 10,000 cells were plated in each well of low-cell-adhesion 96-well culture plate with V-bottomed conical wells (Sumitomo Bakelite) to form uniform EBs in neuronal induction medium containing DMEM/F12:Neurobasal (1:1), 1:100 N2 supplement (Invitrogen), 1:50 B27 without vitamin A (Invitrogen), 1% GlutaMAX (Invitrogen), 1% minimum essential media-nonessential amino acid (Invitrogen), and 0.1% β-mercaptoethanol (Invitrogen) supplemented with 1 μg/ml Heparin (Sigma-Aldrich), 10 μM SB431542 (Stemgent), 200 ng/ml Noggin (Prospec), 0.8 μM CHIR99021 (Reagents Direct), and 10 μM ROCK inhibitor Y27632 (Calbiochem). ROCK inhibitor was added for the first 48 hours and neuronal induction medium was changed on day 2. On day 4, human midbrain-like organoids were cultured with addition of 100 ng/ml SHH-C25II (R&D Systems) and 100 ng/ml FGF8 (R&D Systems) for midbrain patterning. After 3 days, the human midbrain-like organoids started to extrude neuroectodermal buds, media were completely removed and immediately 30 μl of growth factor reduced matrigel was added in each well by pipetting using pre-chilled 200 μl pipette tip. The matrigel embedded midbrain-like organoid was placed into 37° C. incubator for 30 minutes to allow the matrigel to solidify, and was grown in tissue growth induction medium containing Neurobasal, 1:100 N2 supplement (Invitrogen), 1:50 B27 without vitamin A (Invitrogen), 1% GlutaMAX (Invitrogen), 1% minimum essential media-nonessential amino acid (Invitrogen), and 0.1% β-mercaptoethanol (Invitrogen) supplemented with 2.5 μg/ml Insulin (Sigma-Aldrich), 200 ng/ml Laminin (Sigma-Aldrich), 100 ng/ml SHH-C25II (R&D Systems), and 100 ng/ml FGF8 (R&D Systems) for 24 h. […]

Row | Compound | spontaneous excitatory postsynaptic currents (sEPSCs) [1] | formation of neuromelanin-like granules [3] | other results
1 | NC(CCCP(=O)(O)O)C(=O)O (stereo not shown) [AP5] | blocked |  | 
2 | N#Cc1cc2[nH]c(=O)c(=O)[nH]c2cc1[N+](=O)[O-] [CNQX] | blocked |  | 
3 | N[C@@H](Cc1ccc(O)c(O)c1)C(=O)O [L-DOPA, L-3,4-dihydroxyphenylalanine] |  | accelerated | neuromelanin (NM)-like granules or coloured deposits [2]: did not show any neuromelanin (NM)-like granules; distribution of neuromelanin-like granules ([3]; L-DOPA 50 μM, hMLO at day 35, untreated hMLO at the same day showed none): robust distribution of neuromelanin-like granules was observed
4 | NCCc1ccc(O)c(O)c1 [dopamine, 3,4-dihydroxyphenethylamine] |  | accelerated | 
5 | picrotoxin |  |  | spontaneous inhibitory postsynaptic currents (sIPSCs) ([1]; neuron inside hMLO at day 80 (FIG. 4F, recording 3)): blocked
